Results: patent US12150998B2, “Bicyclic peptide ligands specific for P-selectin” (BicycleTx Limited, priority 2021, dated 2024)
Starred links: 1 amine or outer side, 2 acyl side, 3 side chain; linkers in the order of their positions; H or OH if unused. Positions of bridges follow the written chain, without caps; N, C: chain ends. Non-standard residues stand in square brackets, D forms with d. Residues, ends and D or L forms follow the SMILES beside them. TATA = O=C(CC[*:1])N1CN(C(=O)CC[*:2])CN(C(=O)CC[*:3])C1; X1 = O=C(C[*:1])N1CCN(C(=O)C[*:2])CCN(C(=O)C[*:3])CC1; 1Nal = N[C@@H](Cc1cccc2ccccc12)C(=O)O

Target: T1, P-Selectin:PSGL1 interaction (Homo sapiens, UniProt P16109)
T1 construct: host or cells: HL-60 cells (ATCC, CCL-240) supply the PSGL-1 partner endogenously
T1 sequence (P16109 42-771 limits assumed): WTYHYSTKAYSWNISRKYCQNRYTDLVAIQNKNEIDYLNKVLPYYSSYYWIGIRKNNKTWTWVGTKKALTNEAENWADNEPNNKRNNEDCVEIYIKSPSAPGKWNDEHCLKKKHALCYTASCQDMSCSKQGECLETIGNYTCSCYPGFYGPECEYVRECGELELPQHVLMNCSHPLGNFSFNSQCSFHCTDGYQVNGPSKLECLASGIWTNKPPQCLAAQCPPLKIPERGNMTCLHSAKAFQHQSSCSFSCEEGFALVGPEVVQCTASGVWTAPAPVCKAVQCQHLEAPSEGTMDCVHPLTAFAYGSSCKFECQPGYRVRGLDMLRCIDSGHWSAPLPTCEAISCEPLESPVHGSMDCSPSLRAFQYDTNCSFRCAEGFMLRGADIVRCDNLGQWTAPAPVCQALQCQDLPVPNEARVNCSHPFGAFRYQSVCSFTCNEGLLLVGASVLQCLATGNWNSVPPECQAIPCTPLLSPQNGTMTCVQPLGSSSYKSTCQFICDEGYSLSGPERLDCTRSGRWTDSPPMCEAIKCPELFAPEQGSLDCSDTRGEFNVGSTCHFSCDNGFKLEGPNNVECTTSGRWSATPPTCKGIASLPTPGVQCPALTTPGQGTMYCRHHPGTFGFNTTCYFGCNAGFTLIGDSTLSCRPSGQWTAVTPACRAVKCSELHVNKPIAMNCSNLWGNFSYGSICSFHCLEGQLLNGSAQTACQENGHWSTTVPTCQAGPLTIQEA
Assay: Receptor ligand inhibition assay (P-Selectin binding to HL-60 cells)
Type: cell-based
Details: geomean of n=3; for IC50: 5 nM P-Selectin, HL-60 cells, read-out: IC50; for Inhibition at top concentration: 100−% response at top concentration
Description: Bicycle test samples, SelG1 (Crizanlizumab) were serially diluted maintaining 0.5% DMSO in assay buffer (25 mM HEPES, 121 mM NaCl, 5.4 mM KCl, 0.8 mM MgCl2, 1.8 mM CaCl2), 6 mM […], 5.5 mM glucose, 1% BSA, pH7.4) and transferred to 384 well clear bottom plates (Corning, 3712) with a final volume of 6 μL. […], of P-Selectin in imaging buffer (25 mM HEPES, 121 mM NaCl, 5.4 mM KCl, 0.8 mM MgCl2, 1.8 mM CaCl2), 6 mM […], 5.5 mM glucose, pH7.4) was added to give a 5 nM final concentration and incubated at room temperature for 15 minutes. HL-60 cells (ATCC, CCL-240) mixed with 1 μg/mL far red labelled wheat germ agglutinin (WGA, ThermoFisher W21404) and 1 μg/mL AlexaFluor 488-streptavidin (Invitrogen S11223) were added to the plate and incubated for 2 hours at room temperature in the absence of light. Staining and antibody binding were quantified by simultaneously scanning the microplates with 488 nm and 640 nm lasers on a mirrorball microplate cytometer, AF488 on FL2 triggering on AF647-WGA on FL4. Data was analysed in Dotmatics, using a four parameter logistic fit to generate IC50 values and % response. Percent inhibition was calculated using 100−% response at top concentration.

Row | Compound | IC50 [µM] | Inhibition at top concentration [%]
1 | CSCC[C@@H]1NC(=O)[C@H](Cc2ccc(O)cc2)NC(=O)[C@@H](NC(C)=O)CSCCC(=O)N2CN3CN(C2)C(=O)CCSC[C@H](NC(=O)[C@H](Cc2c[nH]c4ccccc24)NC(=O)[C@H](CCC(=O)O)NC1=O)C(=O)N[C@@H](CC(=O)O)C(=O)N[C@@H](C(C)C)C(=O)N[C@@H]([C@@H](C)O)C(=O)N[C@@H](CC(=O)O)C(=O)N[C@@H](Cc1ccc(O)cc1)C(=O)NCC(=O)N[C@H](C(N)=O)CSCCC3=O [BCY9717, Ac-(SEQ ID NO: 6)] (Ac-CYMEWCDVTDYGC-NH2; linker 1-6-13 via TATA; C-terminus assumed) | > 10.9 | 20
2 | CSCC[C@@H]1NC(=O)[C@H](Cc2ccc(O)cc2)NC(=O)[C@@H](NC(=O)[C@H](C)NC(C)=O)CSCCC(=O)N2CN3CN(C2)C(=O)CCSC[C@H](NC(=O)[C@H](Cc2cccc4ccccc24)NC(=O)[C@H](CCC(=O)O)NC1=O)C(=O)N[C@@H](CC(=O)O)C(=O)N[C@@H](C(C)C)C(=O)N[C@@H]([C@@H](C)O)C(=O)N[C@@H](CC(=O)O)C(=O)N[C@@H](Cc1ccc(O)cc1)C(=O)NCC(=O)N[C@H](C(=O)N[C@@H](C)C(N)=O)CSCCC3=O [BCY11279, Ac-A-(SEQ ID NO: 4)-A] (Ac-ACYME[1Nal]CDVTDYGCA-NH2; linker 2-7-14 via TATA) | > 3.54 | 24
3 | CC(C)C[C@@H]1NC(=O)[C@H](CO)NC(=O)[C@@H]2CCCN2C(=O)[C@H](C(C)C)NC(=O)[C@H](CC(=O)O)NC(=O)[C@@H]2CSCC(=O)N3CCN(CCN(CC3)C(=O)CSC[C@@H](C(=O)N[C@@H](C)C(N)=O)NC(=O)[C@@H]3CCCN3C1=O)C(=O)CSC[C@H](NC(=O)[C@H](C)N)C(=O)N[C@@H](CC(=O)O)C(=O)N[C@@H](C)C(=O)N[C@@H](CC(=O)O)C(=O)N[C@@H](Cc1c[nH]c3ccccc13)C(=O)N2 [BCY11648, A-(SEQ ID NO: 3)-A] (H-ACDADWCDVPSLPCA-NH2; linker 2-7-14 via X1; N-terminus and C-terminus assumed) | > 0.117 | 37
